Data taken from patent US20250313563A1, “GLYCOGEN SYNTHASE KINASE 3 INHIBITORS AND USES THEREOF” (The Broad Institute, Inc., priority 2022, published 2025).
Where two headings read alike, the source gives them in different places.

Assays:
[1] = target: GSK3b (GST-full length GSK3b) (Homo sapiens (Human), UniProt P49841); test: GSK3b TR-FRET kinase assay; assay type: biochemical
Summary of the method: (§1)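 1 nM GST-GSK3α/β + cpd, 30 min preinc; add 200 nM biotin-pS645 GS(631-650) peptide + ATP (α 4 μM / β 2 μM, or 1 mM); 100 min RT, 50 mM Tris pH 7.5, 20 mM MgCl2, 1% DMSO; EDTA stop; SA-d2/Tb-pSer641 Ab 60 min; 665/615 ratio → IC50.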

[2] = target: GSK3α (GST-full length GSK3α) (Homo sapiens (Human), UniProt P49840); test: GSK3α TR-FRET kinase assay; assay type: biochemical
GSK3α (GST-full length GSK3α), sequence (P49840 whole entry): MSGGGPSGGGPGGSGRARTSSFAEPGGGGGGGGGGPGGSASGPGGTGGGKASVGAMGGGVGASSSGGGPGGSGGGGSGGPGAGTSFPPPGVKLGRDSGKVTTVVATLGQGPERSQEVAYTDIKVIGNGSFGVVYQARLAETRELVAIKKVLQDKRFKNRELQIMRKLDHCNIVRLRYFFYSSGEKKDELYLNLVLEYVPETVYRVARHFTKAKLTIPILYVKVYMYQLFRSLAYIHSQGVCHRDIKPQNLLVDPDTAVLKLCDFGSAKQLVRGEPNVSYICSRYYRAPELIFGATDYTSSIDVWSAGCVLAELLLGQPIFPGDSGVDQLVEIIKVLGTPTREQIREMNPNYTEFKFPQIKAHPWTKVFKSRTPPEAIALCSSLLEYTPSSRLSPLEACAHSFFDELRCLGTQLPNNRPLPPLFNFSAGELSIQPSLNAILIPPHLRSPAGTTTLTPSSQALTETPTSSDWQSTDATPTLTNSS
Summary of the method: as §1

[3] = 1 nM GSK3b, 2 μM ATP, 30 minute preincubation, read-out: GSK3-B TR-FRET BIOCHEMICAL (TR-FRET), IC50
[4] = GSK3-B (TR-FRET 1 mM ATP), GMean, IC50, 1 mM ATP, geometric mean
[5] = 1 nM GSK3α, 4 μM ATP, 30 minute preincubation, read-out: GSK3-A TR-FRET BIOCHEMICAL (TR-FRET), IC50
[6] = GSK3-A (TR-FRET 1 mM ATP), GMean, IC50, 1 mM ATP, geometric mean
[7] = 1 nM GSK3b, 2 μM ATP, 30 minute preincubation, Table 16, read-out: GSK3-B TR-FRET BIOCHEMICAL (TR-FRET)
[8] = 1 nM GSK3α, 4 μM ATP, 30 minute preincubation, Table 16, read-out: GSK3-A TR-FRET BIOCHEMICAL (TR-FRET)
[9] = 1 nM GSK3b, 2 μM ATP, 30 minute preincubation, geometric mean, read-out: GSK3-B TR-FRET BIOCHEMICAL (TR-FRET), GMean, IC50
[10] = 1 nM GSK3α, 4 μM ATP, 30 minute preincubation, geometric mean, read-out: GSK3-A TR-FRET BIOCHEMICAL (TR-FRET), GMean, IC50
[11] = 1 nM GSK3b, 2 μM ATP, 30 minute preincubation, Table 16, read-out: GSK3-B TR-FRET BIOCHEMICAL (TR-FRET), IC50
[12] = 1 nM GSK3α, 4 μM ATP, 30 minute preincubation, Table 16, read-out: GSK3-A TR-FRET BIOCHEMICAL (TR-FRET), IC50

GSK3b (GST-full length GSK3b), sequence (P49841 whole entry): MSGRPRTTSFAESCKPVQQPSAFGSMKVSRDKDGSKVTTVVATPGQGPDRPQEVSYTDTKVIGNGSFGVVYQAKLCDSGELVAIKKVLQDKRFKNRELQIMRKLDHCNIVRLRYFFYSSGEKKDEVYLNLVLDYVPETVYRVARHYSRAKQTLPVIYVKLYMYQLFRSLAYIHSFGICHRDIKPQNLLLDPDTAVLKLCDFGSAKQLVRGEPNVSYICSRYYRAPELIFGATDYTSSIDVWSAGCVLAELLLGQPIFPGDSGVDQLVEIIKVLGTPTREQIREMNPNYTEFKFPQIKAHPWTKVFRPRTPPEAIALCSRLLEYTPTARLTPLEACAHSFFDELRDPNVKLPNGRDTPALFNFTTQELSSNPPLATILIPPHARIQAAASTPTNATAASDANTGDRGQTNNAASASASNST

CC1(C)CC(=O)C2=C(C1)Nc1n[nH]cc1C21CC2(CCCC2)C1 [Compound 874477]
IC50 [1, 3]: ≤ 0.1 µM | IC50 [1, 4]: 1 to 5 µM | IC50 [2, 5]: ≤ 0.1 µM | IC50 [2, 6]: 0.1 to 1 µM

CC1(C)CC(=O)C2=C(C1)Nc1n[nH]cc1C21CCC1 [Compound 874509]
IC50 [1, 7]: 0.1 to 1 µM | IC50 [2, 8]: 0.1 to 1 µM

CCC1(c2ccccc2)C2=C(CC(C)(C)CC2=O)Nc2n[nH]c(C(F)F)c21 (stereo not drawn) [Compound 874510]
IC50 [1, 9]: ≤ 0.1 µM | IC50 ([1]; read-out: GSK3-B (TR-FRET 1 mM ATP), GMean, IC50, 1 mM ATP, geometric mean): 0.1 to 1 µM | IC50 [2, 10]: ≤ 0.1 µM | IC50 ([2]; read-out: GSK3-A (TR-FRET 1 mM ATP), GMean, IC50, 1 mM ATP, geometric mean): 0.1 to 1 µM

CC1(C)CC(=O)C2=C(C1)Nc1n[nH]cc1C21CC(C(F)(F)F)C1 (stereo not drawn) [Compound 874527]
IC50 [1, 7]: 0.1 to 1 µM | IC50 [2, 8]: ≤ 0.1 µM

CC1(C)CC(=O)C2=C(C1)Nc1n[nH]cc1C21CCN(CC(F)(F)F)CC1 [Compound 874528]
IC50 [1, 7]: 0.1 to 1 µM | IC50 [2, 8]: ≤ 0.1 µM

CC1(C)CC(=O)C2=C(C1)Nc1n[nH]cc1C21CCN(c2ccncn2)CC1 [Compound 874529]
IC50 [1, 7]: 1 to 5 µM | IC50 [2, 8]: 0.1 to 1 µM

CC1(C)CC(=O)C2=C(C1)Nc1n[nH]cc1C21CCN(S(=O)(=O)c2ccccc2)CC1 [Compound 874530]
IC50 [1, 7]: ≤ 0.1 µM | IC50 [1, 4]: 1 to 5 µM | IC50 [2, 8]: ≤ 0.1 µM | IC50 [2, 6]: 0.1 to 1 µM

CCC1(c2cccc(-n3ccnc3)c2)C2=C(CC(C)(C)CC2=O)Nc2n[nH]cc21 (stereo not drawn) [Compound 874531]
IC50 [1, 9]: ≤ 0.1 µM | IC50 [2, 10]: ≤ 0.1 µM

C[C@@H]1CCC[C@]2(C1)C1=C(CC(C)(C)CC1=O)Nc1n[nH]cc12 [Compound 874532]
IC50 [1, 7]: ≤ 0.1 µM | IC50 [2, 8]: ≤ 0.1 µM

CCC1(c2cccc(-n3ccnc3)c2)C2=C(CC(C)(C)CC2=O)Nc2n[nH]cc21 (stereo not drawn) [Compound 874533]
IC50 [1, 9]: > 5 µM | IC50 [2, 10]: 0.1 to 1 µM

CC1(C)CC(=O)C2=C(C1)Nc1n[nH]cc1C21CC2(CCOCC2)C1 [Compound 874534]
IC50 [1, 3]: ≤ 0.1 µM | IC50 [1, 4]: 0.1 to 1 µM | IC50 [2, 5]: ≤ 0.1 µM | IC50 [2, 6]: 0.1 to 1 µM

CC1(C)CC(=O)C2=C(C1)Nc1n[nH]cc1[C@]21CCCOCC1 [Compound 874535]
IC50 [1, 7]: ≤ 0.1 µM | IC50 [2, 8]: ≤ 0.1 µM

CC1(C)CC(=O)C2=C(C1)Nc1n[nH]cc1[C@@]21CCCOCC1 [Compound 874536]
IC50 [1, 11]: 1 to 5 µM | IC50 [2, 12]: 0.1 to 1 µM

C[C@@H]1CCC[C@@]2(C1)C1=C(CC(C)(C)CC1=O)Nc1n[nH]cc12 [Compound 874537]
IC50 [1, 7]: 0.1 to 1 µM | IC50 [2, 8]: 0.1 to 1 µM

CC[C@@]1(c2cccc(N(C)c3ccccn3)c2)C2=C(CC(C)(C)CC2=O)Nc2n[nH]cc21 [Compound 875608]
IC50 [1, 9]: > 5 µM | IC50 [2, 10]: 1 to 5 µM

Cc1[nH]nc2c1C1(CCCCC1)C1=C(CC(C)(C)CC1=O)N2 [Compound 877288]
IC50 [1, 11]: > 5 µM | IC50 [2, 12]: > 5 µM

CCC1(CC)C2=C(CC(C)(C)CC2=O)Nc2n[nH]c(C3CC3)c21 [Compound 877294]
IC50 [1, 11]: > 5 µM | IC50 [2, 12]: > 5 µM

Cc1[nH]nc2c1C1(CC3(CCC3)C1)C1=C(CC(C)(C)CC1=O)N2 [Compound 877295]
IC50 [1, 3]: > 5 µM | IC50 [2, 5]: > 5 µM

CCC1(c2cccc(N3CCCCC3)c2)C2=C(CC(C)(C)CC2=O)Nc2n[nH]c(C)c21 (stereo not drawn) [Compound 877311]
IC50 [1, 9]: ≤ 0.1 µM | IC50 [2, 10]: ≤ 0.1 µM

CC1(C)CC(=O)C2=C(C1)Nc1n[nH]cc1[C@]21CCOC1 [Compound 877313]
IC50 [1, 7]: 0.1 to 1 µM | IC50 [2, 8]: 0.1 to 1 µM

CC1(C)CC(=O)C2=C(C1)Nc1n[nH]cc1[C@@]21CCOC1 [Compound 877314]
IC50 [1, 11]: 1 to 5 µM | IC50 [2, 12]: 0.1 to 1 µM

CC1(C)CC(=O)C2=C(C1)Nc1n[nH]cc1C21CCC(c2ccccc2)CC1 (stereo not drawn) [Compound 877320]
IC50 [1, 7]: ≤ 0.1 µM | IC50 [2, 8]: ≤ 0.1 µM

CC1(C)CC(=O)C2=C(C1)Nc1n[nH]cc1C21CCN(c2ccncc2)CC1 [Compound 880765]
IC50 [1, 11]: > 5 µM | IC50 [2, 12]: > 5 µM

CC1(C)CC(=O)C2=C(C1)Nc1n[nH]cc1C21CCN(S(C)(=O)=O)CC1 [Compound 880776]
IC50 [1, 7]: ≤ 0.1 µM | IC50 [2, 8]: ≤ 0.1 µM

CC1(C)CC(=O)C2=C(Nc3n[nH]cc3C23CCOCC3)[C@H]1F [Compound 883833]
IC50 [1, 7]: 1 to 5 µM | IC50 [2, 8]: 0.1 to 1 µM

CC1(C)CC(=O)C2=C(Nc3n[nH]cc3C23CCOCC3)[C@@H]1F [Compound 883834]
IC50 [1, 7]: 1 to 5 µM | IC50 [2, 8]: 0.1 to 1 µM
